This assay has as its target T1, Human IP6K1 (Homo sapiens, UniProt Q92551).
T1 construct: GST (N, cleaved yes); made in house; host or cells: C43 E. coli, pGEX-6P-2
Kind of assay: IP6K1 high-throughput screen of the Sigma LOPAC (ADP-Glo Max, single point).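 Further: final compound concentration 10µM in 5% DMSO.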 The assay is classed as biochemical. (ADP-Glo first removes unused ATP, then detects ADP through luciferase.)

Where [1] appears, read: Sigma LOPAC single-point screen, ADP-Glo Max raw signal per well.
[2] abbreviates: Sigma LOPAC single-point screen, Z-score from plate average and StDev.
The mark [3] stands for this setting: LOPAC single-point screen, Z-score against plate average and StDev.
Where [4] appears, read: LOPAC single-point screen, ADP-Glo Max raw signal per well.
The mark [5] stands for this setting: LOPAC single-point screen, Z-score from raw signal with plate average and StDev.
[6] abbreviates: LOPAC single-point screen, ADP-Glo Max luminescence raw signal per well.
Where [7] appears, read: LOPAC single-point screen, Z-score relative to plate average and StDev.
Setting [8] is: LOPAC single-point screen, Z-score from plate average and StDev.

Structures can show the parent of a compound that is named as a salt.

T1 sequence (Q92551 whole entry): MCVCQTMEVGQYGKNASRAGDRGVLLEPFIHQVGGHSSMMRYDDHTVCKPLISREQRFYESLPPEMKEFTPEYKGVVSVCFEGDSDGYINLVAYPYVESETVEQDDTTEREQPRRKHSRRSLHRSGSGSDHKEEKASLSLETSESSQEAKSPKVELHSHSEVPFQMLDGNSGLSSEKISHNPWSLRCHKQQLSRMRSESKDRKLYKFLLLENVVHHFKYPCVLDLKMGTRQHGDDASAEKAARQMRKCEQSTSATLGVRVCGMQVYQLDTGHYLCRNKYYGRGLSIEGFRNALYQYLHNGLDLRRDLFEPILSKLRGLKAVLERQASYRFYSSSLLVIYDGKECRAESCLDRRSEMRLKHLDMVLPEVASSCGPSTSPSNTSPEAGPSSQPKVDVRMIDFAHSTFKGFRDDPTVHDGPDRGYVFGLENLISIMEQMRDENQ

Take `CCCCCC(O)c1cccc(OCc2ccc3ccccc3n2)c1` (centres unmarked) [REV 5901]: under setting [1], the “Raw Signal” value is given as 62376. The same compound came in with a Z-score under setting [2] of 1.234. In the case of `O=C(O)CCC(C(=O)O)N1C(=O)c2ccccc2C1=O` [L-Glutamic acid, N-phthaloyl-], the “Raw Signal” value under setting [1] was determined as 59775. This compound had a Z-score under setting [2] of 0.9042. Regarding `CC(N)Cc1c[nH]c2ccc(O)cc12.O=C(O)/C=C\C(=O)O` (stereo not drawn) [alpha-Methyl-5-hydroxytryptamine maleate], the Z-score under setting [3] is 0.02915. On to `C=C[C@H]1C[N@@]2CC[C@H]1C[C@H]2[C@H](O)c1ccnc2ccc(OC)cc12` [Quinine sulfate], for which the “Raw Signal” value under setting [4] came to 53765. The Z-score under setting [5] is -0.4388. For `C[C@H](O)[C@H](O)[C@H]1CNc2nc(N)[nH]c(=O)c2N1.Cl`, the “Raw Signal” value under setting [4] is reported as 53766. In addition, the Z-score under setting [5] is -0.4386.

`CC(C)(C)c1ccc(S(=O)(=O)/C=C/C#N)cc1` [Bay 11-7085]: the “Raw Signal” value under setting [4] stood at 58167. The same compound returned a Z-score under setting [3] of 0.04472. As to `CC(N)Cc1c[nH]c2ccc(OCc3cccs3)cc12` (centres unmarked) [BW 723C86], the “Raw Signal” value under setting [6] came out at 55162. This compound also displayed a Z-score under setting [7] of -0.4845.

As to `CCc1ccccc1OC[C@@H](O)CN[C@H]1CCCc2ccccc21.O=C(O)C(=O)O` [SR 59230A oxalate], the “Raw Signal” value under setting [4] is on record as 55204. This compound registered a Z-score under setting [5] of -0.1593. Regarding `N[C@@H](CC(=O)O)C(=O)O` [L-Aspartic acid], the “Raw Signal” value under setting [4] worked out at 58223. Under setting [3], the Z-score is reported as 0.05458. For the compound `COc1ccc(CCNC[C@H](O)c2ccc(O)cc2)cc1OC` [R(-)-Denopamine], the “Raw Signal” value under setting [1] came out at 58220. The compound also returned a Z-score under setting [2] of 0.4267. In the case of `N[C@@H](Cc1c[nH]c2ccccc12)C(=O)O` [L-Tryptophan], under setting [1], the “Raw Signal” value is given as 60593. The compound also displayed a Z-score under setting [2] of 0.8877. For `CC(C)C[C@H]1C(=O)N2CCC[C@H]2[C@]2(O)O[C@](NC(=O)[C@@H]3C=C4c5cccc6[nH]c(Br)c(c56)C[C@H]4N(C)C3)(C(C)C)C(=O)N12.CS(=O)(=O)O` [(+)-Bromocriptine methanesulfonate], under setting [4], the “Raw Signal” value amounted to 59214. This compound also displayed a Z-score under setting [3] of 0.2291. As for `CC(C)(C(=O)O)c1ccc(C(O)CCCN2CCC(C(O)(c3ccccc3)c3ccccc3)CC2)cc1` (centres unmarked) [Fexofenadine hydrochloride], the “Raw Signal” value under setting [1] is recorded as 58731. In addition, the Z-score under setting [2] is on record as 0.7238. As to `CC(N)=O` [Acetamide], the “Raw Signal” value under setting [1] was determined as 63288. For the same compound, the Z-score under setting [2] is 0.9467.

`CC(C)N(CCC(C(N)=O)(c1ccccc1)c1ccccn1)C(C)C` (centres unmarked) [Disopyramide phosphate]: under setting [4], the “Raw Signal” value came out at 54365. The Z-score under setting [5] is reported as -0.1629. The matching figures for `COC(=O)C1=CCCN(C)C1` [Arecoline hydrobromide]: 57110 and -0.1414. On to `N[C@H](C(=O)O)c1cc(O)no1` (racemic) [(±)-Ibotenic acid], for which the “Raw Signal” value under setting [1] worked out at 57640. This compound came in with a Z-score under setting [2] of 0.5455.

In the case of `CCCc1c(-c2ccc(O)cc2)nn(-c2ccc(O)cc2)c1-c1ccc(O)cc1`, the “Raw Signal” value under setting [6] was found to be 52149. Under setting [7], this compound gave a Z-score of -0.6129. For `NC(=O)c1cc(N2CC2)c([N+](=O)[O-])cc1[N+](=O)[O-]` [CB 1954], the “Raw Signal” value under setting [4] turned out to be 55279. The same compound yielded a Z-score under setting [5] of -0.4639. Turning to `CCOC(=O)[N-]c1cn(N2CCOCC2)n[o+]1` [Molsidomine], the “Raw Signal” value under setting [1] was 60839. Under setting [2], this compound returned a Z-score of 1.083.

For the compound `O=C(O)/C=C/c1ccc(O)c(O)c1` [Caffeic Acid], under setting [4], the “Raw Signal” value stood at 56687. The Z-score under setting [5] is listed as -0.216.

As for `Cc1c(CC(C)(C)C(=O)O)n(Cc2ccc(Cl)cc2)c2ccc(F)cc12` [L-655,240], the “Raw Signal” value under setting [6] is on record as 51424. Under setting [7], this compound showed a Z-score of -0.499. Take `C[N+]1(C)CCc2cc3c(cc2[C@H]1[C@@H]1OC(=O)c2c1ccc1c2OCO1)OCO3.[Br-]` [(-)-Bicuculline methbromide, 1(S), 9(R)]: the “Raw Signal” value under setting [4] was determined as 56332. The compound further yielded a Z-score under setting [5] of -0.2785.

Take `COC(=O)[C@@H]1[C@H]2C[C@H]3c4[nH]c5ccccc5c4CCN3C[C@@H]2CC[C@@H]1O` [Yohimbine hydrochloride]: the “Raw Signal” value under setting [4] is reported as 57737. The Z-score under setting [3] is reported as 0.3328. Regarding `O=C(Nc1ccc([N+](=O)[O-])cc1Cl)c1cc(Cl)ccc1O` [Niclosamide], the “Raw Signal” value under setting [4] is recorded as 53914. Moreover, under setting [3], the Z-score is listed as -0.08057. For `CC(C)[C@@]1(NC(=O)[C@@H]2C=C3c4cccc5[nH]cc(c45)C[C@H]3N(C)C2)O[C@@]2(O)[C@@H]3CCCN3C(=O)[C@H](Cc3ccccc3)N2C1=O` [Ergocristine], under setting [6], the “Raw Signal” value is recorded as 51436. Also, the Z-score under setting [7] is reported as -0.7577. For the compound `CC(=O)S[C@@H]1CC2=CC(=O)CC[C@]2(C)[C@H]2CC[C@@]3(C)[C@@H](CC[C@@]34CCC(=O)O4)[C@H]12` [Spironolactone], the “Raw Signal” value under setting [6] came to 50910. Besides, the Z-score under setting [7] is -0.9935.

On to `COC(=O)C(C)(N)Cc1ccc(O)cc1.Cl` (racemic), for which, under setting [4], the “Raw Signal” value is recorded as 52897. In addition, the Z-score under setting [5] was -0.2515. As for `COc1nc(C)nc(Cl)c1NC1=NCCN1.Cl` [Moxonidine hydrochloride], under setting [4], the “Raw Signal” value amounted to 52362. Under setting [5], the Z-score was -0.3413. For the compound `CC(=O)C(C)=O` [2,3-Butanedione], the “Raw Signal” value under setting [4] is on record as 53441. Also, the Z-score under setting [5] is -0.3505. Regarding `N=C(N)NC(=O)c1nc(Cl)c(N)nc1N` [Amiloride hydrochloride], under setting [1], the “Raw Signal” value is reported as 63890. The same compound returned a Z-score under setting [2] of 1.0527. Regarding `CN/C(=N\c1ccc(C2=NNC(=O)CC2C)cc1)NC#N` (centres unmarked) [SKF 94836], under setting [4], the “Raw Signal” value was 55520. The Z-score under setting [5] is recorded as -0.09788. As to `CCOC(=O)C1=C(C)NC(C)=C(C(=O)OC)C1c1cccc([N+](=O)[O-])c1` (centres unmarked) [Nitrendipine], the “Raw Signal” value under setting [1] is reported as 58110. The compound also registered a Z-score under setting [2] of 0.6245. Turning to Foliosidine, under setting [4], the “Raw Signal” value is 53530. Under setting [5], the Z-score is reported as -0.3325. As to `N[C@@H](COP(=O)(O)O)C(=O)O` [O-Phospho-L-serine], the “Raw Signal” value under setting [1] turned out to be 59842. In addition, under setting [2], the Z-score is recorded as 0.9155. On to `Cn1cnc2c1c(=O)[nH]c(=O)n2C` [Theobromine], for which, under setting [6], the “Raw Signal” value was 52921. Moreover, the Z-score under setting [7] was -0.6028. In the same order, the values of `Nc1c(S(=O)(=O)O)cc(Nc2ccc(Nc3nc(Cl)nc(Nc4cccc(S(=O)(=O)O)c4)n3)c(S(=O)(=O)O)c2)c2c1C(=O)c1ccccc1C2=O` [Reactive Blue 2] are 20201 and -6.96. On to `COc1ccc2[nH]c3c(c2c1)CCNC3`, for which the “Raw Signal” value under setting [6] amounted to 69821. Moreover, the Z-score under setting [8] amounted to 2.097.

With `Nc1ncn([C@@H]2O[C@H](CO)[C@@H](O)[C@H]2O)c(=O)n1` [5-azacytidine], the “Raw Signal” value under setting [6] is listed as 54885. This compound showed a Z-score under setting [7] of -0.5333. In the case of `COc1ccc2[nH]cc(CCN)c2c1.Cl` [O-Methylserotonin hydrochloride], under setting [4], the “Raw Signal” value is reported as 53655. The same compound yielded a Z-score under setting [5] of -0.1241. In the case of `OC(CN1CCN(c2cccc(Cl)c2)CC1)C(c1ccccc1)c1ccccc1` (centres unmarked) [BRL 15572], the “Raw Signal” value under setting [4] is on record as 57949. Under setting [3], this compound had a Z-score of 0.006323.

Regarding `Cl.NNC(N)=O` [Semicarbazide hydrochloride], under setting [4], the “Raw Signal” value is recorded as 55828. Under setting [3], the Z-score is on record as -0.03804.

As for `c1ccc2c(c1)CCCC2C1=NCCN1` (centres unmarked) [Tetrahydrozoline hydrochloride], the “Raw Signal” value under setting [4] worked out at 57605. Under setting [3], this compound gave a Z-score of 0.3072. As to `NNC(=O)c1ccc(O)cc1` [4-Hydroxybenzhydrazide], under setting [1], the “Raw Signal” value came to 59100. Also, the Z-score under setting [2] stood at 0.7987. Regarding `CC(=O)C(C)=NO` [2,3-Butanedione monoxime], the “Raw Signal” value under setting [6] is on record as 66346. The compound further yielded a Z-score under setting [8] of 1.485. As to `CC1CNCCN1S(=O)(=O)c1cccc2cnccc12.Cl.Cl` (centres unmarked), under setting [4], the “Raw Signal” value stood at 52932. Under setting [5], this compound had a Z-score of -0.2456. Turning to `C#C[C@]1(O)CC[C@H]2[C@@H]3CCC4=Cc5nc6nc7ccccc7n6cc5C[C@]4(C)[C@H]3CC[C@@]21C` [WIN 62,577], under setting [1], the “Raw Signal” value turned out to be 58080. In addition, under setting [2], the Z-score came out at 0.3995. As for `Br.CN1CCc2cc(O)c(O)cc2C(c2ccccc2)C1` (centres unmarked) [SKF 75670 hydrobromide], under setting [4], the “Raw Signal” value is given as 56113. This compound gave a Z-score under setting [3] of 0.01733. The matching figures for `COc1cccc2c1[C@@H]1CN(CCCCn3c(=O)[nH]c4c(sc5ncc(-c6ccccc6)nc54)c3=O)C[C@@H]1CO2` [Fiduxosin hydrochloride]: 56814 and 0.3345.

As for `O=C([O-])c1cc2cc(Cc3cccnc3)ccc2o1.[Na+]` [Furegrelate sodium], the “Raw Signal” value under setting [4] amounted to 53193. In addition, the Z-score under setting [5] is reported as -0.4009. In the case of `CCCCCCCCCC(=O)N[C@H](CN1CCOCC1)[C@H](O)c1ccccc1.Cl` (racemic), the “Raw Signal” value under setting [1] is on record as 58472. This compound displayed a Z-score under setting [2] of 0.4756.

Regarding `CCCCCCCCCCC/C=C\C(C)(C)/C=C\CCCC(=O)O` [7,7-Dimethyl-(5Z,8Z)-eicosadienoic acid], the “Raw Signal” value under setting [4] worked out at 53422. The compound further displayed a Z-score under setting [5] of -0.3544.

Turning to `C=CCN1CC[C@]23c4c5ccc(O)c4O[C@H]2C(=O)CC[C@@]3(O)[C@H]1C5` [Naloxone hydrochloride], the “Raw Signal” value under setting [4] is given as 55041. Moreover, the Z-score under setting [3] is 0.1088. For the compound `O=C(O)Cc1c[nH]c2ccc(O)cc12` [5-Hydroxyindolacetic acid], the “Raw Signal” value under setting [1] worked out at 56978. Under setting [2], this compound displayed a Z-score of 0.3678.

The record behind these values is article PMC5706701, “Development of a homogenous high-throughput assay for inositol hexakisphosphate kinase 1 activity” (PLoS ONE, 2017).
